The conditions of data set [1]: in vivo. From the text:
[referred to Exp. 6-II), Table 12].
The frequency of the adverse reaction was compared between the two groups.

Data set [2] can be described thus: blood-level and excretion of native pinacidil. It counts as in vivo, inpatients suffering from hypertension.
A short description of data set [3]: relationship between antihypertensive effect and blood-level of pinacidil. Also noted: species or system inpatients suffering from hypertension. The settings on record: in vivo. From the text:
The term ΔMBP means the difference between the values of Mean Blood Pressure before and after the administration, and FIGS. 1 and 2 show the average of blood-levels or ΔMBP on the five inpatients.

Data set [4] can be described thus: adverse reaction at various dosages in inpatients. It counts as in vivo, inpatients suffering from hypertension. The conditions noted are these: higher dosage affording sufficient therapeutic time.
The conditions of data set [5]: in vivo; cited from earlier work.

We go through one compound from patent publication US4720387A (priority 1983, dated 1988).

Consider `CC(N/C(=N\C#N)Nc1ccncc1)C(C)(C)C` (stereo not drawn) [pinacidil, N"-cyano-N-4-pyridyl-N'-1,2,2-trimethylpropylguanidine], for which, in data set [1], the “blood-level at which side-effects (headache) occasionally occur” value is recorded as “over 100 ng/ml” and the “maximum safety level (blood-level)” value was 100 ng/mL. Moreover, in data set [2] (highest dosage of unprepared pinacidil to avoid the adverse reaction), the “time the effective blood-level is kept” value is “about 6 hours”. Moreover, in data set [2] (human, blood, administered after a meal, read-out: biological half-life period), the half-life fell in the range of 1 to 2 h. Besides, the Tmax in data set [2] (human, blood, administered after a meal, read-out: time to maximum concentration) lay within 1 to 3 h. In data set [3], the “blood-level at which the antihypertensive effect was minimum (minimum effective blood-level)” value is listed as “around 20 ng/ml” and the “blood-level at which the antihypertensive effect was satisfactory” value is “over 30 ng/ml”. In addition, in data set [4], the “adverse reaction at higher dosage” value is “usually induced the adverse reaction (i.e. headache)”. The “dose proportionality of blood-level” value in data set [5] is listed as “increases in proportion to its dose level”.
